The source of these data is patent US20240239790A1, “7-Morpholino-1,6-Naphthyridin-5-yl Derivatives and Pharmaceutical Compositions Thereof Useful as DNA-PK Inhibitor” (adMare Therapeutics Society, priority 2021, published 2024).

One data set addresses T1, DNA-PK (Homo sapiens, UniProt P78527).
T1 construct: purchased Invitrogen PR9107A
The data set can be described thus: DNA-PK Assay for Biochemical Enzymatic Inhibition (ADP Glo Kinase assay). The conditions noted are these: DNA-PK enzyme, Table 1. In a few lines: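 Human DNA-PK (25 ng) preincubated 15 min with compounds (ten three-fold dilutions) in HEPES pH 7.5, MgCl2, KCl, calf thymus DNA buffer, then substrate 434.4 μM and ATP 64.4 μM (final) for 60 min at room temperature. ADP-Glo luminescence; percent inhibition fitted by four-parameter regression for IC50.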

Data set [1] is described as follows: Microsomal Stability Assay, mouse liver microsomes. The class given is in vitro ADME. To be noted: for microsomal CLint at 0.1 uM: male, CD-1, pH 7.4, mouse liver microsomes 0.1 mg/mL, 0.1 uM compound; for Microsomal Stability Mouse % rem. 60 min: mouse liver microsomes. How it is done:
Samples were then mixed and centrifuged. Supernatants were used for HPLC-MS/MS analysis. […] Peak areas corresponding to the test compound were recorded.

Data set [2] relates to pDNA-PK induction in HCT116 tumour spheroids. The data set can be described thus: Multicellular tumour spheroid + radiation, pDNA-PK (ser2056) inhibition, immunohistochemical endpoint, HCT116. To be noted: Homo sapiens, 20 Gy, 20% O2. The class given is cell-based. In a few lines:
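HCT116 spheroids (~0.5 mm) in MEM/10% FBS, 20% O2, 37° C., pre-incubated 1 h with compound (10 or 5 μM down to 3.5 nM), irradiated 20 Gy, then 2 h further with compound. Cryosections immunostained for pDNA-PK ser2056; EC50 is concentration halving radiation-induced pDNA-PK.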

The target of data set [3] is T2, DNA-PK phosphorylation at Serine 2056 (Homo sapiens, UniProt P78527).
T2 construct: FaDu cells were purchased from ATCC; host or cells: FaDu
Description: Cellular Assay for Inhibition of DNA-PK Phosphorylation at Serine 2056 in FaDu cells (sandwich ELISA, neocarzinostatin). It is filed as cell-based. To be noted: pSer2056 DNA-PK, neocarzinostatin 1 μg/mL, Table 1. An outline of the steps:
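pSer2056 and total DNA-PK were measured by sandwich ELISA in BCA-normalised FaDu lysates. Cells had 1 h compound exposure (0.3% DMSO), then 2 h with 1 μg/mL final neocarzinostatin. IC50 was fitted (variable slope) to % inhibition scaled against NCS-stimulated and DMSO-only controls.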

Setting [4] is: HCT-116, 2 hours following radiation, Example 9 Study 2, read-out: Spheroid Cell line: HCT116 Immunohistochemical endpoint pDNA-PK inhibition EC50.
[5] abbreviates: HCT-116, Spheroid, Cell Line: HCT115 (so in the source), 2 hours following radiation, Example 7, read-out: EC50, Immunohistochemical endpoint, pDNA-PK inhibition.
The mark [6] stands for this setting: HCT-116, 2 h, spheroids, Example 8, read-out: Cell line: HCT116 Immunohistochemical endpoint pDNA-PK inhibition EC50.

Like-named read-outs stand apart in the source and are kept apart here. Some results are limits rather than exact numbers.

Turning to `CON(C)C(=O)COc1cnc(N[C@H]2CC[C@@H](Oc3nc(N4CCOCC4)cc4ncccc34)CC2)nc1` [Compound 58, N-Methoxy-N-methyl-2-((2-(((1s,4s)-4-((7-morpholino-1,6-naphthyridin-5-yl)oxy)cyclohexyl)amino)pyrimidin-5-yl)oxy)acetamide], the IC50 at DNA-PK is less than 0.5 nM; in data set [3], 100 to 1000 nM. Besides, the microsomal CLint at 0.1 uM in data set [1] was more than 116 µL/min/mg. The “Microsomal Stability Mouse % rem. 60 min” value in data set [1] is given as “E (% remaining = 0-25%)”. Besides, the EC50 in data set [2] (setting [4]) and in data set [2] (setting [5]) was 500 to 1000 nM in each case.

On to `NC(=O)COc1cnc(N[C@H]2CC[C@@H](Oc3nc(N4CCOCC4)cc4ncccc34)CC2)nc1` [Compound 60, 2-((2-(((1s,4s)-4-((7-Morpholino-1,6-naphthyridin-5-yl)oxy)cyclohexyl)amino)pyrimidin-5-yl)oxy)acetamide], for which the IC50 is less than 0.5 nM on DNA-PK and less than 100 nM in data set [3]. In data set [1], this molecule returned a microsomal CLint at 0.1 uM of more than 116 µL/min/mg. Further, in data set [1], the “Microsomal Stability Mouse % rem. 60 min” value is listed as “F (% remaining = 25-50%)”. Also, the EC50 in data set [2] (setting [4]) and in data set [2] (setting [5]) was 10 to 500 nM in each case.

Consider `CONC(=O)COc1cnc(N[C@H]2CC[C@@H](Oc3nc(N4CCOCC4)cc4ncccc34)CC2)nc1` [Compound 72, N-Methoxy-2-((2-(((1s,4s)-4-((7-morpholino-1,6-naphthyridin-5-yl)oxy)cyclohexyl)amino)pyrimidin-5-yl)oxy)acetamide], for which the 50% inhibitory concentration (IC50) is 1 to 10 nM at DNA-PK and less than 100 nM in data set [3]. In addition, the microsomal CLint at 0.1 uM in data set [1] was more than 116 µL/min/mg. In addition, the “Microsomal Stability Mouse % rem. 60 min” value in data set [1] is “E (% remaining = 0-25%)”. Further, the EC50 in data set [2] (setting [4]) and in data set [2] (setting [5]) was 500 to 1000 nM in each case.

Consider `CN(C)C(=O)Cn1cccc1C(=O)N[C@H]1CC[C@@H](Oc2nc(N3CCOCC3)cc3ncccc23)CC1` [Compound 146, 1-(2-(dimethylamino)-2-oxoethyl)-N-((1s,4s)-4-((7-morpholino-1,6-naphthyridin-5-yl)oxy)cyclohexyl)-1H-pyrrole-2-carboxamide], for which the IC50 at DNA-PK was in the range of 1 to 10 nM; in data set [3], 1000 to 10000 nM. In data set [1], this molecule came in with an intrinsic metabolic clearance (microsomal CLint) at 0.1 uM of more than 116 µL/min/mg. Besides, the “Microsomal Stability Mouse % rem. 60 min” value in data set [1] is “F (% remaining = 25-50%)”. Moreover, the concentration for a half-maximal effect (EC50) in data set [2] (setting [4]) and in data set [2] (setting [5]) was 1000 to 10000 nM each time.

`O=C(Nc1ccccc1)N[C@H]1CC[C@@H](Oc2nc(N3CCOCC3)cc3ncccc23)CC1` [Compound 150, 1-((1s,4s)-4-((7-Morpholino-1,6-naphthyridin-5-yl)oxy)cyclohexyl)-3-phenylurea]: the IC50 is 0.5 to 1 nM on DNA-PK and 100 to 1000 nM in data set [3]. Further, in data set [1], the microsomal CLint at 0.1 uM is more than 116 µL/min/mg. Moreover, in data set [1], the “Microsomal Stability Mouse % rem. 60 min” value is reported as “E (% remaining = 0-25%)”. For the same molecule, the EC50 in data set [2] (setting [6]), in data set [2] (setting [4]) and in data set [2] (setting [5]) was 500 to 1000 nM each time.

On to `NC(=O)c1cnc2cc(N3CCOCC3)nc(O[C@H]3CC[C@@H](n4ccnc4)CC3)c2c1` [Compound 166, 5-(((1s,4s)-4-(1H-imidazol-1-yl)cyclohexyl)oxy)-7-morpholino-1,6-naphthyridine-3-carboxamide], for which the IC50 on DNA-PK is 1 to 10 nM; in data set [3], 10000 to 30000 nM. This molecule also came in with a microsomal CLint at 0.1 uM in data set [1] of more than 116 µL/min/mg. Besides, the “Microsomal Stability Mouse % rem. 60 min” value in data set [1] was “E (% remaining = 0-25%)”. For the same molecule, the EC50 in data set [2] (setting [6]), in data set [2] (setting [4]) and in data set [2] (setting [5]) was 10000 to 100000 nM each time.

As to `CC(=O)NC(=O)c1cnc2cc(N3CCOCC3)nc(O[C@H]3CC[C@@H](n4ccnc4)CC3)c2c1` [Compound 167, 5-(((1s,4s)-4-(1H-imidazol-1-yl)cyclohexyl)oxy)-N-acetyl-7-morpholino-1,6-naphthyridine-3-carboxamide], the values for the IC50 (on DNA-PK; in data set [3]) were 1 to 10 nM and 100 to 1000 nM, respectively. The same molecule showed a microsomal CLint at 0.1 uM in data set [1] of more than 116 µL/min/mg. Moreover, the “Microsomal Stability Mouse % rem. 60 min” value in data set [1] is “E (% remaining = 0-25%)”. In addition, the EC50 in data set [2] (setting [6]), in data set [2] (setting [4]) and in data set [2] (setting [5]) was 10000 to 100000 nM throughout.
